According to patent publication US20240109917A1 (ACTELION PHARMACEUTICALS LTD, priority 2020, published 2024):
Where two headings read alike, the source gives them in different places.

Key:
[1] = molecular target: Tb-labeled inactive PDGFRβ (Homo sapiens (Human), UniProt P09619); assay: PDGFRβ LanthaScreen Assay; assay type: binding; details: read-out: PDGFR Lantha IC50
PDGFRβ = PDGFRβ (Rattus norvegicus (Rat), UniProt Q05030); assay: PDGFRβ Cellular Assay (PDGFRb P-Y751 HTRF in A10 cells stimulated with PDGF-BB); assay type: cell-based
Chain of PDGFRβ (Q05030 32-1097): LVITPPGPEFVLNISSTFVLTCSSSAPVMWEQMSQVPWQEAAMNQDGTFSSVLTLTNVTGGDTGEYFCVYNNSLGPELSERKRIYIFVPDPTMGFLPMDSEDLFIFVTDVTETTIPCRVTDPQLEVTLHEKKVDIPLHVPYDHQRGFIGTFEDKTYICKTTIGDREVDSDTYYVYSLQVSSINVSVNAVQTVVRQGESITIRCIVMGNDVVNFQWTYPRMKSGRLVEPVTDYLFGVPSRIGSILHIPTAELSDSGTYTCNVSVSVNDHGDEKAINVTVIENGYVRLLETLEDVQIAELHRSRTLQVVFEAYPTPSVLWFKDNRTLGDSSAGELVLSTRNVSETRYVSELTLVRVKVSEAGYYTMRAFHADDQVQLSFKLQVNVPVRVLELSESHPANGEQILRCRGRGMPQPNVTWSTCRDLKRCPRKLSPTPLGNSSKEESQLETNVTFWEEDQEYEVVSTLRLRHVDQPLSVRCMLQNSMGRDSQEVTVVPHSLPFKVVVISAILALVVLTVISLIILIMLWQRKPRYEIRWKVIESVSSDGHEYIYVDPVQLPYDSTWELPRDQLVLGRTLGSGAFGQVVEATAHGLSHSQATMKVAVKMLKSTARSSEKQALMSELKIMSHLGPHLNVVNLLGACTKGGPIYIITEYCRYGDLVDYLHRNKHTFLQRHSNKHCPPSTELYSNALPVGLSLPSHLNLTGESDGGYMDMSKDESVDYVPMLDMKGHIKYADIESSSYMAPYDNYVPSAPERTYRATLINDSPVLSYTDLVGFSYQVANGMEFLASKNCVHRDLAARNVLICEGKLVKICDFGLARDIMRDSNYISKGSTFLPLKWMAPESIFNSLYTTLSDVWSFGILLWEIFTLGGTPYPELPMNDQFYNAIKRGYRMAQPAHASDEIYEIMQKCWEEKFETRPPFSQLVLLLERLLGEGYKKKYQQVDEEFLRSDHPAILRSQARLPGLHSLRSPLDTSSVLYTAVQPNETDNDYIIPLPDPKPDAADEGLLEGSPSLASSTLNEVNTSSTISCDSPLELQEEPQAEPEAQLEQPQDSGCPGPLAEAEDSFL
Procedure, shortened: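 Rat A10 cells, plated overnight, were treated with compound for 3 hours, then stimulated with PDGF-BB (working stock 100 ng/mL in 10% FBS medium). After lysis, PDGFRβ P-Y751 was detected by HTRF.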

VEGFR2, unphosphorylated = VEGFR2, unphosphorylated (Homo sapiens (Human), UniProt P35968); assay: VEGFR ADP GLO Assay; assay type: biochemical
Chain of VEGFR2, unphosphorylated (P35968 20-1356): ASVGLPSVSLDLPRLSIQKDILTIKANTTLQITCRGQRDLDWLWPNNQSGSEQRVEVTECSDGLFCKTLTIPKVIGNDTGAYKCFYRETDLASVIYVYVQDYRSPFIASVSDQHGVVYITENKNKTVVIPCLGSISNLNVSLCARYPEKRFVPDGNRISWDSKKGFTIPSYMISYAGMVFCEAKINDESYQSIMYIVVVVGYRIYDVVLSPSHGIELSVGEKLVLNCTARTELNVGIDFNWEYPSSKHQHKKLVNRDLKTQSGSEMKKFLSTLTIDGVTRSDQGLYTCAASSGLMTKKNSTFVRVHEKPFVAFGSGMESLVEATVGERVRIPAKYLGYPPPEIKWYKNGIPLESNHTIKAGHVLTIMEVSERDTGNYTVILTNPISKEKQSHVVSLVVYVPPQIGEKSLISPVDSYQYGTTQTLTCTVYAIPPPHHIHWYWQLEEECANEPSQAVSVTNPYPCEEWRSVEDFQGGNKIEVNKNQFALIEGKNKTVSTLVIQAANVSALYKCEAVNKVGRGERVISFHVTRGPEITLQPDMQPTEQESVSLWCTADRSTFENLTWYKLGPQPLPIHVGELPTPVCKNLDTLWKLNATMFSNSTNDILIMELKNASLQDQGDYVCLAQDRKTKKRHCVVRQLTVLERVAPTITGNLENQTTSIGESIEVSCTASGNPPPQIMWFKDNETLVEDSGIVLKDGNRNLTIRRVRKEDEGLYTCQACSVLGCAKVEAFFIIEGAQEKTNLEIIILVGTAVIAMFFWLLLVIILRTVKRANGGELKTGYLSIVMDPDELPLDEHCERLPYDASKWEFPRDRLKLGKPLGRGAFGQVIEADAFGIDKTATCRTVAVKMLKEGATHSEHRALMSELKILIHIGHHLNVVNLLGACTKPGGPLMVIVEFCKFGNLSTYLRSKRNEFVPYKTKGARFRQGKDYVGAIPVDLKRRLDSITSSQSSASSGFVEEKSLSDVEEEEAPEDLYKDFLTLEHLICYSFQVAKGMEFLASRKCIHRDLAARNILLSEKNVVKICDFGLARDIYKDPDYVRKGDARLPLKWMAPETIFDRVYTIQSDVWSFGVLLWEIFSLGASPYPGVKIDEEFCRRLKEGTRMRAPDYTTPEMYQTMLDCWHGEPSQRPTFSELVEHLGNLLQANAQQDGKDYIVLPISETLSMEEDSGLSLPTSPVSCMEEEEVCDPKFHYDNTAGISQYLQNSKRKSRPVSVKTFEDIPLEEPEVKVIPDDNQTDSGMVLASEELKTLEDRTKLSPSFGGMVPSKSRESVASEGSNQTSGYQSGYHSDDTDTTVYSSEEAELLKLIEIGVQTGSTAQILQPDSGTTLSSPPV

Chain of Tb-labeled inactive PDGFRβ (P09619 33-1106): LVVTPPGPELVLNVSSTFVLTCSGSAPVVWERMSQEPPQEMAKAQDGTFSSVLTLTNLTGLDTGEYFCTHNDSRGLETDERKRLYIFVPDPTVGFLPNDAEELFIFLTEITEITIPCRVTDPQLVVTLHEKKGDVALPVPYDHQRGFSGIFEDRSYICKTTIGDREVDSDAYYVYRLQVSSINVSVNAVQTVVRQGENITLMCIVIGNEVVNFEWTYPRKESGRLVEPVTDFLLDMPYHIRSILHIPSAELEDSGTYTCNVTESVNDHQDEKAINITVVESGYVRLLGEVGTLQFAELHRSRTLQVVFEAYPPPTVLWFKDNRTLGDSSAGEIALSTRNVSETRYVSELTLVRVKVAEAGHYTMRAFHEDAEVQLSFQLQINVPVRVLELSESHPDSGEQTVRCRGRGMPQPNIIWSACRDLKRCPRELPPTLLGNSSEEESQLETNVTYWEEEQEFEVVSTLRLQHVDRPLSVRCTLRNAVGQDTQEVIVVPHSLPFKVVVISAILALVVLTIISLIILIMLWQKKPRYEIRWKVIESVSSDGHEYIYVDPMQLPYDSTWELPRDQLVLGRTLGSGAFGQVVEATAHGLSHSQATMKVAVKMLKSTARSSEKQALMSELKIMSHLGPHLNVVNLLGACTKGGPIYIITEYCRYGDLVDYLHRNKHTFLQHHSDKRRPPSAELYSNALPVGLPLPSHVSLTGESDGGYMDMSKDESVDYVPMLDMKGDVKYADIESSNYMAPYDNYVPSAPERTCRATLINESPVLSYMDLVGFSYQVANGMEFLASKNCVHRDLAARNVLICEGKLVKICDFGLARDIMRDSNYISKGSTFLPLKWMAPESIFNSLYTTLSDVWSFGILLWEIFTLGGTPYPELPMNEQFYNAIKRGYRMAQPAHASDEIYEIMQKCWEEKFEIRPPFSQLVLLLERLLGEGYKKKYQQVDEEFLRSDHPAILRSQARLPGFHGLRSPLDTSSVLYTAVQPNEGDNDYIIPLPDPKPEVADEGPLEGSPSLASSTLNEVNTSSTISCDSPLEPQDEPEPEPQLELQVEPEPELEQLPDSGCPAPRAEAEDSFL

Cc1ncc(NC(=O)NCCC2CCN(C)CC2)cc1NC(=O)c1cnn2cc(-c3cnn(C)c3)sc12 [Example 108, 2-(1-methyl-1H-pyrazol-4-yl)-N-(2-methyl-5-(3-(2-(1-methylpiperidin-4-yl)ethyl)ureido)pyridin-3-yl)pyrazolo[5,1-b]thiazole-7-carboxamide]
IC50 [1]: 490 nM | IC50 (PDGFRβ; read-out: PDGFR Cellular IC50): > 3000 nM | IC50 (VEGFR2, unphosphorylated): > 2500 nM

Cc1ncc(NC(=O)NCC2CCN(C(C)C)CC2)cc1NC(=O)c1cnn2cc(-c3cnn(C)c3)sc12 [Example 109, N-(5-(3-((1-isopropylpiperidin-4-yl)methyl)ureido)-2-methylpyridin-3-yl)-2-(1-methyl-1H-pyrazol-4-yl)pyrazolo[5,1-b]thiazole-7-carboxamide]
IC50 [1]: 1900 nM | IC50 (PDGFRβ; read-out: PDGFR Cellular IC50): > 3000 nM | IC50 (VEGFR2, unphosphorylated): > 7500 nM

Cc1ncc(C(=O)NCCN2CCOCC23CC3)cc1NC(=O)c1cnn2cc(-c3cnn(C)c3)sc12 [Example 110, N-(5-((2-(7-oxa-4-azaspiro[2.5]octan-4-yl)ethyl)carbamoyl)-2-methylpyridin-3-yl)-2-(1-methyl-1H-pyrazol-4-yl)pyrazolo[5,1-b]thiazole-7-carboxamide]
IC50 [1]: 5.7 nM | IC50 (PDGFRβ; read-out: PDGFR Cellular IC50): 35.4 nM | IC50 (VEGFR2, unphosphorylated): 664 nM

Cc1ncc(C(=O)NCCN2Cc3ncsc3C2)cc1NC(=O)c1cnn2cc(-c3cnn(C)c3)sc12 [Example 111, N-(5-((2-(4H-pyrrolo[3,4-d]thiazol-5 (6H)-yl)ethyl)carbamoyl)-2-methylpyridin-3-yl)-2-(1-methyl-1H-pyrazol-4-yl)pyrazolo[5,1-b]thiazole-7-carboxamide]
IC50 [1]: 36.4 nM | IC50 (PDGFRβ; read-out: PDGFR Cellular IC50): 294 nM | IC50 (VEGFR2, unphosphorylated): > 7500 nM

Cc1ncc(C(=O)NCCN2CC3COCC3C2)cc1NC(=O)c1cnn2cc(-c3cnn(C)c3)sc12 (stereo not drawn) [Example 112, 2-(1-methyl-1H-pyrazol-4-yl)-N-(2-methyl-5-((2-(tetrahydro-1H-furo[3,4-c]pyrrol-5 (3H)-yl)ethyl)carbamoyl)pyridin-3-yl)pyrazolo[5,1-b]thiazole-7-carboxamide]
IC50 [1]: 12.6 nM | IC50 (PDGFRβ; read-out: PDGFR Cellular IC50): 159 nM | IC50 (VEGFR2, unphosphorylated): > 7500 nM

Cc1ncc(C(=O)NCCN2CCC3(CCC3)C2)cc1NC(=O)c1cnn2cc(-c3cnn(C)c3)sc12 [Example 113, N-(5-((2-(6-azaspiro[3.4]octan-6-yl)ethyl)carbamoyl)-2-methylpyridin-3-yl)-2-(1-methyl-1H-pyrazol-4-yl)pyrazolo[5,1-b]thiazole-7-carboxamide]
IC50 [1]: 1.4 nM | IC50 (PDGFRβ; read-out: PDGFR Cellular IC50): 11.5 nM | IC50 (VEGFR2, unphosphorylated): > 7500 nM

Cc1ncc(C(=O)NCCN2CCCC23COC3)cc1NC(=O)c1cnn2cc(-c3cnn(C)c3)sc12 [Example 114, N-(5-((2-(2-oxa-5-azaspiro[3.4]octan-5-yl)ethyl)carbamoyl)-2-methylpyridin-3-yl)-2-(1-methyl-1H-pyrazol-4-yl)pyrazolo[5,1-b]thiazole-7-carboxamide]
IC50 [1]: 4.6 nM | IC50 (PDGFRβ; read-out: PDGFR Cellular IC50): 27.6 nM | IC50 (VEGFR2, unphosphorylated): > 7500 nM

COCCN(CCNC(=O)c1cnc(C)c(NC(=O)c2cnn3cc(-c4cnn(C)c4)sc23)c1)C1CCC1 [Example 115, N-(5-((2-(cyclobutyl(2-methoxyethyl)amino)ethyl)carbamoyl)-2-methylpyridin-3-yl)-2-(1-methyl-1H-pyrazol-4-yl)pyrazolo[5,1-b]thiazole-7-carboxamide]
IC50 [1]: 4.7 nM | IC50 (PDGFRβ; read-out: PDGFR Cellular IC50): 13.3 nM | IC50 (VEGFR2, unphosphorylated): > 7500 nM

Cc1ncc(C(=O)NCCN2CCC3(CCOC3)C2)cc1NC(=O)c1cnn2cc(-c3cnn(C)c3)sc12 (stereo not drawn) [Example 116, N-(5-((2-(2-oxa-7-azaspiro[4.4]nonan-7-yl)ethyl)carbamoyl)-2-methylpyridin-3-yl)-2-(1-methyl-1H-pyrazol-4-yl)pyrazolo[5,1-b]thiazole-7-carboxamide]
IC50 [1]: 12.7 nM | IC50 (PDGFRβ; read-out: PDGFR Cellular IC50): 74.7 nM | IC50 (VEGFR2, unphosphorylated): > 7500 nM

Cc1ncc(C(=O)NCCN2CCOCC23CCC3)cc1NC(=O)c1cnn2cc(-c3cnn(C)c3)sc12 [Example 117, N-(5-((2-(8-oxa-5-azaspiro[3.5]nonan-5-yl)ethyl)carbamoyl)-2-methylpyridin-3-yl)-2-(1-methyl-1H-pyrazol-4-yl)pyrazolo[5,1-b]thiazole-7-carboxamide]
IC50 [1]: 2.3 nM | IC50 (PDGFRβ; read-out: PDGFR Cellular IC50): 5.6 nM | IC50 (VEGFR2, unphosphorylated): > 7500 nM

Cc1ncc(C(=O)NCCN2CCC3(CC3)C2)cc1NC(=O)c1cnn2cc(-c3cnn(C)c3)sc12 [Example 118, N-(5-((2-(5-azaspiro[2.4]heptan-5-yl)ethyl)carbamoyl)-2-methylpyridin-3-yl)-2-(1-methyl-1H-pyrazol-4-yl)pyrazolo[5,1-b]thiazole-7-carboxamide]
IC50 [1]: 7.1 nM | IC50 (PDGFRβ; read-out: PDGFR Cellular IC50): 55.5 nM | IC50 (VEGFR2, unphosphorylated): > 7500 nM

Cc1ncc(C(=O)NCCN2CCC(F)(F)CC2)cc1NC(=O)c1cnn2cc(-c3cnn(C)c3)sc12 [Example 119, N-(5-((2-(4,4-difluoropiperidin-1-yl)ethyl)carbamoyl)-2-methylpyridin-3-yl)-2-(1-methyl-1H-pyrazol-4-yl)pyrazolo[5,1-b]thiazole-7-carboxamide]
IC50 [1]: 2 nM | IC50 (PDGFRβ; read-out: PDGFR Cellular IC50): 4.9 nM | IC50 (VEGFR2, unphosphorylated): > 7500 nM

Cc1ncc(C(=O)NCCN2CCC(F)(F)C2)cc1NC(=O)c1cnn2cc(-c3cnn(C)c3)sc12 [Example 120, N-(5-((2-(3,3-difluoropyrrolidin-1-yl)ethyl)carbamoyl)-2-methylpyridin-3-yl)-2-(1-methyl-1H-pyrazol-4-yl)pyrazolo[5,1-b]thiazole-7-carboxamide]
IC50 [1]: 4.5 nM | IC50 (PDGFRβ; read-out: PDGFR Cellular IC50): 9.3 nM | IC50 (VEGFR2, unphosphorylated): > 7500 nM

Cc1ncc(C(=O)NCCN2CCCOCC2)cc1NC(=O)c1cnn2cc(-c3cnn(C)c3)sc12 [Example 121, N-(5-((2-(1,4-oxazepan-4-yl)ethyl)carbamoyl)-2-methylpyridin-3-yl)-2-(1-methyl-1H-pyrazol-4-yl)pyrazolo[5,1-b]thiazole-7-carboxamide]
IC50 [1]: 13.1 nM | IC50 (PDGFRβ; read-out: PDGFR Cellular IC50): 80.4 nM | IC50 (VEGFR2, unphosphorylated): > 7500 nM

Cc1ncc(C(=O)NCCN2C3CCC2COC3)cc1NC(=O)c1cnn2cc(-c3cnn(C)c3)sc12 [Example 122, N-(5-((2-(3-oxa-8-azabicyclo[3.2.1]octan-8-yl)ethyl)carbamoyl)-2-methylpyridin-3-yl)-2-(1-methyl-1H-pyrazol-4-yl)pyrazolo[5,1-b]thiazole-7-carboxamide]
IC50 [1]: 2.8 nM | IC50 (PDGFRβ; read-out: PDGFR Cellular IC50): 19.4 nM | IC50 (VEGFR2, unphosphorylated): > 7500 nM

Cc1ncc(C(=O)NCCN2CCCC(F)(F)C2)cc1NC(=O)c1cnn2cc(-c3cnn(C)c3)sc12 [Example 123, N-(5-((2-(3,3-difluoropiperidin-1-yl)ethyl)carbamoyl)-2-methylpyridin-3-yl)-2-(1-methyl-1H-pyrazol-4-yl)pyrazolo[5,1-b]thiazole-7-carboxamide]
IC50 [1]: 2.7 nM | IC50 (PDGFRβ; read-out: PDGFR Cellular IC50): 7.8 nM | IC50 (VEGFR2, unphosphorylated): > 7500 nM

Cc1ncc(C(=O)NCCN2CC3(CCC3)C2)cc1NC(=O)c1cnn2cc(-c3cnn(C)c3)sc12 [Example 124, N-(5-((2-(2-azaspiro[3.3]heptan-2-yl)ethyl)carbamoyl)-2-methylpyridin-3-yl)-2-(1-methyl-1H-pyrazol-4-yl)pyrazolo[5,1-b]thiazole-7-carboxamide]
IC50 [1]: 19.6 nM | IC50 (PDGFRβ; read-out: PDGFR Cellular IC50): 134 nM | IC50 (VEGFR2, unphosphorylated): > 7500 nM

Cc1ncc(C(=O)NCCN2CC(F)(F)C2)cc1NC(=O)c1cnn2cc(-c3cnn(C)c3)sc12 [Example 125, N-(5-((2-(3,3-difluoroazetidin-1-yl)ethyl)carbamoyl)-2-methylpyridin-3-yl)-2-(1-methyl-1H-pyrazol-4-yl)pyrazolo[5,1-b]thiazole-7-carboxamide]
IC50 [1]: 5.3 nM | IC50 (PDGFRβ; read-out: PDGFR Cellular IC50): 47.6 nM | IC50 (VEGFR2, unphosphorylated): > 7500 nM

Cc1ncc(C(=O)NCCN2CC(C)(C)C2)cc1NC(=O)c1cnn2cc(-c3cnn(C)c3)sc12 [Example 126, N-(5-((2-(3,3-dimethylazetidin-1-yl)ethyl)carbamoyl)-2-methylpyridin-3-yl)-2-(1-methyl-1H-pyrazol-4-yl)pyrazolo[5,1-b]thiazole-7-carboxamide]
IC50 [1]: 10.3 nM | IC50 (PDGFRβ; read-out: PDGFR Cellular IC50): 80.1 nM | IC50 (VEGFR2, unphosphorylated): > 7500 nM

COCCN(CCNC(=O)c1cnc(C)c(NC(=O)c2cnn3cc(-c4cnn(C)c4)sc23)c1)C(C)C [Example 127, N-(5-((2-(isopropyl(2-methoxyethyl)amino)ethyl)carbamoyl)-2-methylpyridin-3-yl)-2-(1-methyl-1H-pyrazol-4-yl)pyrazolo[5,1-b]thiazole-7-carboxamide]
IC50 [1]: 6 nM | IC50 (PDGFRβ; PDGFR Cellular IC50): 16.2 nM | IC50 (VEGFR2, unphosphorylated): > 7500 nM

COCCN(CCNC(=O)c1cnc(C)c(NC(=O)c2cnn3cc(-c4cnn(C)c4)sc23)c1)CCOC [Example 128, N-(5-((2-(bis(2-methoxyethyl)amino)ethyl)carbamoyl)-2-methylpyridin-3-yl)-2-(1-methyl-1H-pyrazol-4-yl)pyrazolo[5,1-b]thiazole-7-carboxamide]
IC50 [1]: 18.3 nM | IC50 (PDGFRβ; read-out: PDGFR Cellular IC50): 46.8 nM | IC50 (VEGFR2, unphosphorylated): > 7500 nM

CC(=O)N1CCN(CCNC(=O)c2cnc(C)c(NC(=O)c3cnn4cc(-c5cnn(C)c5)sc34)c2)CC1 [Example 129, N-(5-((2-(4-acetylpiperazin-1-yl)ethyl)carbamoyl)-2-methylpyridin-3-yl)-2-(1-methyl-1H-pyrazol-4-yl)pyrazolo[5,1-b]thiazole-7-carboxamide]
IC50 [1]: 87.1 nM | IC50 (PDGFRβ; read-out: PDGFR Cellular IC50): > 3000 nM | IC50 (VEGFR2, unphosphorylated): > 7500 nM

Cc1ncc(C(=O)NCCN2CCCC2(C)C)cc1NC(=O)c1cnn2cc(-c3cncnc3)sc12 [Example 139, N-(5-((2-(2,2-dimethylpyrrolidin-1-yl)ethyl)carbamoyl)-2-methylpyridin-3-yl)-2-(pyrimidin-5-yl)pyrazolo[5,1-b]thiazole-7-carboxamide]
IC50 [1]: 182 nM | IC50 (PDGFRβ; read-out: PDGFR Cellular IC50): 164 nM | IC50 (VEGFR2, unphosphorylated): > 7500 nM

Cc1ncc(C(=O)NCCN2CCCC2(C)C)cc1NC(=O)c1cnn2cc(-c3cnn(CCO)c3)sc12 [Example 140, N-(5-((2-(2,2-dimethylpyrrolidin-1-yl)ethyl)carbamoyl)-2-methylpyridin-3-yl)-2-(1-(2-hydroxyethyl)-1H-pyrazol-4-yl)pyrazolo[5,1-b]thiazole-7-carboxamide]
IC50 [1]: 4.9 nM | IC50 (PDGFRβ; read-out: PDGFR Cellular IC50): 309 nM | IC50 (VEGFR2, unphosphorylated): > 7500 nM
